We go through 19 molecules from ChEMBL document CHEMBL4049439, “Synthesis and Characterization of Tetrahydropyran-Based Bacterial Topoisomerase Inhibitors with Antibacterial Activity against Gram-Negative Bacteria” (J Med Chem, 2017).

In data set [1] the test system is Acinetobacter baumannii. The data set can be described thus: Antibacterial activity against fluoroquinolone-resistant Acinetobacter baumannii T6474 by CLSI broth microdilution method. In kind it is functional.
Data set [2] relates to Pseudomonas aeruginosa. As to the kind of experiment: Antibacterial activity against Pseudomonas aeruginosa ATCC 27853 by CLSI broth microdilution method. The class given is functional. (In broth dilution the organism is exposed to a series of concentrations in liquid medium.)
Data set [3] is described as follows: (§1) Inhibition of wild-type Pseudomonas aeruginosa DNA gyrase supercoiling activity using relaxed pBR322 DNA as substrate by ethidium bromide based agarose gel electrophoresis.
For a further data set, the system named is Escherichia coli. As to the kind of experiment: Antibacterial activity against wild-type Escherichia coli ATCC 25922 by CLSI broth microdilution method. The class given is functional.
Data set [4] in a line: Inhibition of wild-type Escherichia coli DNA topoisomerase-4 mediated supercoiled pBR322 DNA relaxation by ethidium bromide based agarose gel electrophoresis.
The subject of the next data set is Staphylococcus aureus. The data set can be described thus: Antibacterial activity against Staphylococcus aureus ATCC 29213 by CLSI broth microdilution method. In kind it is functional.
The nature of data set [5]: (§2) Inhibition of wild-type Acinetobacter baumannii DNA topoisomerase-4 mediated supercoiled pBR322 DNA relaxation by ethidium bromide based agarose gel electrophoresis.
The nature of data set [6]: Inhibition of wild-type Escherichia coli DNA gyrase supercoiling activity using relaxed pBR322 DNA as substrate by ethidium bromide based agarose gel electrophoresis.
Data set [7] can be described thus: (§3) Inhibition of wild-type Pseudomonas aeruginosa DNA topoisomerase-4 mediated supercoiled pBR322 DNA relaxation by ethidium bromide based agarose gel electrophoresis.
Data set [8] in a line: (§4) Inhibition of wild-type Acinetobacter baumannii DNA gyrase supercoiling activity using relaxed pBR322 DNA as substrate by ethidium bromide based agarose gel electrophoresis.
Data set [9] relates to Pseudomonas aeruginosa. The data set is described as §1.
The test system of data set [10] is Acinetobacter baumannii. Described as §2.
For data set [11], the system named is Pseudomonas aeruginosa. The description is as §3.
For data set [12], the system named is Acinetobacter baumannii. Described as §4.
Data set [13] can be described thus: Lipophilicity, log D of the compound at pH 7.4. In kind it is physicochemical. The following applies: buffer.

In brackets after ≈: the same amount, converted by molar mass. Activity calls are given as the source filed them.

The term MIC denotes the smallest concentration in the dilution series that meets the test's criterion for growth inhibition. The low end stands for inhibition by little substance, the high end for a need for much substance. For orientation: IC50 means the concentration needed to halve the response being measured. On to `COc1ccc2nccc(CC(N)[C@@H]3CC[C@@H](NCc4ccc5c(n4)NC(=O)CO5)CO3)c2n1` (mixture of isomers), for which the MIC was 0.5 mg/L in the data set with Acinetobacter baumannii [1], 2 mg/L against Pseudomonas aeruginosa [2], 0.125 mg/L in the data set with Escherichia coli and 0.125 mg/L in the data set with Staphylococcus aureus. For the same molecule, the IC50 in [3], in data set [4], in data set [5], in data set [6], in data set [7] and in data set [8] was 0.5 µM in each case.

For `COc1cnc2ccc(=O)n(C[C@H](N)[C@@H]3CC[C@@H](NCc4ccc5c(n4)NC(=O)CO5)CO3)c2c1`, the minimal inhibitory concentration (MIC) with Acinetobacter baumannii [1] was determined as 4 mg/L (≈ 8.32 µM); against Pseudomonas aeruginosa [2], 4 mg/L (≈ 8.32 µM); with Escherichia coli it was 1 mg/L (≈ 2.08 µM); against Staphylococcus aureus, 1 mg/L (≈ 2.08 µM). The IC50 in data set [3] amounted to 0.03 µM; in [4], 0.03 µM; in [5], 0.125 µM; in data set [6], 0.5 µM; in data set [7], 0.03 µM; in [8], 0.03 µM.

On to `COc1ccc2ncc(=O)n(C[C@H](N)[C@@H]3CC[C@@H](NCc4ccc5c(n4)NC(=O)CO5)CO3)c2c1`, for which the MIC against Acinetobacter baumannii [1] was determined as 2 mg/L (≈ 4.16 µM); against Pseudomonas aeruginosa [2] it was 4 mg/L (≈ 8.32 µM); against Escherichia coli, 0.25 mg/L (≈ 0.52 µM); against Staphylococcus aureus, 0.063 mg/L (≈ 0.131 µM). Further, the IC50 came to 0.03 µM in [3]; 0.03 µM in [4]; 0.125 µM in data set [5]; 0.5 µM in data set [6]; 0.03 µM in [7]; 0.03 µM in data set [8].

`COc1ccc2ccc(=O)n(C[C@H](O)[C@@H]3CC[C@@H](NCc4cc5c(cn4)OCCO5)CO3)c2n1`: the MIC with Acinetobacter baumannii [1] is 0.5 mg/L (≈ 1.07 µM); with Pseudomonas aeruginosa [2] it was above 8 mg/L; in the data set with Escherichia coli, 4 mg/L (≈ 8.54 µM); against Staphylococcus aureus it was at most 0.03 mg/L. Also, the half-inhibitory concentration (IC50) in data set [3] worked out at 0.125 µM; in data set [4], 0.125 µM; in [5], 0.125 µM; in [6], 8 µM; in [7], 0.125 µM; in data set [8] it was 0.125 µM.

The molecule `COc1ccc2ncc(F)c(C[C@H](O)[C@@H]3CC[C@@H](NCc4cc5c(nn4)OCCS5)CO3)c2n1` had an MIC in the data set with Acinetobacter baumannii [1] of 2 mg/L (≈ 4.1 µM). Also, the IC50 in [3] came out at 0.5 µM; in data set [5] it was 0.125 µM; in data set [7] it was 0.125 µM; in data set [8], 2 µM.

`COc1cnc2ccc(=O)n(C[C@H](N)[C@@H]3CC[C@@H](NCc4ccc5c(n4)NC(=O)CO5)CO3)c2n1`: the minimum inhibitory concentration (MIC) worked out at 2 mg/L (≈ 4.15 µM) with Acinetobacter baumannii [1], 1 mg/L (≈ 2.08 µM) against Pseudomonas aeruginosa [2], 0.5 mg/L (≈ 1.04 µM) against Escherichia coli and 0.5 mg/L (≈ 1.04 µM) against Staphylococcus aureus. Besides, the IC50 in [3] is 0.125 µM; in [4], 0.03 µM; in [5], 0.03 µM; in data set [6], 0.5 µM; in data set [7], 0.03 µM; in [8], 0.125 µM.

On to `COc1ccc2nccc([C@H](N)C[C@@H]3CC[C@@H](NCc4ccc5c(n4)NC(=O)CO5)CO3)c2n1`, for which the inhibition entry in the data set on Pseudomonas aeruginosa [9], in the data set on Acinetobacter baumannii [10], in the data set with Pseudomonas aeruginosa [11] and in the data set on Acinetobacter baumannii [12] was “inactive” in each case.

Broadly, the logD is the decadic logarithm of the distribution of all forms, ionised or not, between an organic phase and buffer at a given pH. A high value points to a more lipophilic compound. `COc1ccc2ncc(F)c(C[C@H](O)C34CCC(NCc5ccc6c(n5)NC(=O)CO6)(CC3)CO4)c2n1` showed a logD in data set [13] of 2.

On to `COc1ccc2ccc(=O)n(C[C@H](O)[C@@H]3CC[C@@H](NCc4cc5c(nn4)OCCS5)CO3)c2n1`, for which the MIC with Acinetobacter baumannii [1] was 8 mg/L (≈ 16.5 µM); in the data set on Pseudomonas aeruginosa [2], above 8 mg/L; against Escherichia coli, above 8 mg/L; against Staphylococcus aureus, 0.031 mg/L (≈ 0.0638 µM). The IC50 in [3] was 0.5 µM; in data set [4], 0.125 µM; in [5], 0.5 µM; in [6], 8 µM; in data set [7] it was 0.125 µM; in data set [8], 2 µM.

`COc1ccc2ccc(F)c(C[C@H](N)[C@@H]3CC[C@@H](NCc4ccc5c(n4)NC(=O)CO5)CO3)c2n1`: the MIC in the data set with Acinetobacter baumannii [1] is at most 0.03 mg/L; with Pseudomonas aeruginosa [2] it was 1 mg/L (≈ 2.08 µM); against Escherichia coli, at most 0.03 mg/L; in the data set on Staphylococcus aureus, 0.03 mg/L (≈ 0.0623 µM). Further, the IC50 is 0.03 µM in [3]; at most 0.01 µM in data set [4]; 0.03 µM in data set [5]; 0.03 µM in [6]; 0.03 µM in [7]; 0.03 µM in data set [8].

As to `COc1ccc2ccc(=O)n(C[C@H](N)[C@@H]3CC[C@@H](NCc4ccc5c(n4)NC(=O)CO5)CO3)c2c1`, the MIC in the data set on Acinetobacter baumannii [1] came out at 2 mg/L (≈ 4.17 µM); with Pseudomonas aeruginosa [2], 4 mg/L (≈ 8.34 µM); against Escherichia coli, 0.25 mg/L (≈ 0.521 µM); against Staphylococcus aureus it was 0.25 mg/L (≈ 0.521 µM). The IC50 in data set [3] was 0.125 µM; in [4], 0.03 µM; in [5], 0.125 µM; in data set [6] it was 0.125 µM; in data set [7], 0.5 µM; in [8], 0.125 µM.

In the case of `COc1ccc2ncc(F)c(C[C@@H](N)[C@@H]3CC[C@@H](NCc4ccc5c(n4)NC(=O)CO5)CO3)c2n1`, the minimum inhibitory concentration (MIC) in the data set on Acinetobacter baumannii [1] was 1 mg/L (≈ 2.07 µM); against Pseudomonas aeruginosa [2] it was above 8 mg/L; against Escherichia coli it was 1 mg/L (≈ 2.07 µM); in the data set on Staphylococcus aureus, 1 mg/L (≈ 2.07 µM). For the same molecule, the IC50 in data set [3] was determined as 0.125 µM; in data set [4], 0.125 µM; in [5] it was 0.125 µM; in [6] it was 0.5 µM; in [7], 0.125 µM; in data set [8] it was 0.5 µM.

On to `O=C(O)c1cn(C2CC2)c2cc(N3CCNCC3)c(F)cc2c1=O` [CIPROFLOXACIN], for which the half-maximal inhibitory concentration (IC50) in data set [3] was 0.5 µM; in data set [5] it was 32 µM; in [7], 8 µM; in data set [8], 2 µM.

With `COc1ccc2ccc(=O)n(C[C@H](O)[C@@H]3CC[C@@H](NCc4cc5c(nn4)OCCO5)CO3)c2n1`, the minimum inhibitory concentration (MIC) is above 8 mg/L against Acinetobacter baumannii [1], above 8 mg/L with Pseudomonas aeruginosa [2], above 8 mg/L against Escherichia coli and 0.06 mg/L (≈ 0.128 µM) in the data set on Staphylococcus aureus. Moreover, the IC50 in data set [3] stood at 8 µM; in data set [4], 2 µM; in [5], 8 µM; in data set [6], 32 µM; in [7], 0.5 µM; in data set [8], 8 µM.

As to `COc1ccc2ccc(=O)n(C[C@H](O)[C@@H]3CC[C@@H](NCc4cc5c(cn4)OCCS5)CO3)c2n1`, the minimal inhibitory concentration (MIC) is 0.5 mg/L (≈ 1.03 µM) with Acinetobacter baumannii [1], above 8 mg/L in the data set with Pseudomonas aeruginosa [2], 4 mg/L (≈ 8.25 µM) in the data set on Escherichia coli and at most 0.03 mg/L with Staphylococcus aureus. Besides, the IC50 in [3] is 0.5 µM; in [4], 0.03 µM; in data set [5] it was 0.03 µM; in data set [6], 0.5 µM; in data set [7], at most 0.01 µM; in data set [8], 0.125 µM.

For the molecule `COc1ccc2nccc([C@@H](N)C[C@@H]3CC[C@@H](NCc4ccc5c(n4)NC(=O)CO5)CO3)c2n1`, the inhibition result in the data set with Pseudomonas aeruginosa [9], in the data set on Acinetobacter baumannii [10], with Pseudomonas aeruginosa [11] and in the data set with Acinetobacter baumannii [12] was “inactive” throughout.

For the molecule `COc1ccc2nccc(C[C@H](N)[C@@H]3CC[C@@H](NCc4ccc5c(n4)NC(=O)CO5)CO3)c2n1`, the minimal inhibitory concentration (MIC) in the data set with Acinetobacter baumannii [1] is 0.25 mg/L (≈ 0.538 µM); in the data set on Pseudomonas aeruginosa [2], 0.5 mg/L (≈ 1.08 µM); against Escherichia coli, 0.125 mg/L (≈ 0.269 µM); with Staphylococcus aureus it was 0.06 mg/L (≈ 0.129 µM). Moreover, the half-inhibitory concentration (IC50) stood at 0.125 µM in [3]; 0.03 µM in [4]; 0.03 µM in [5]; 0.125 µM in data set [6]; 0.03 µM in [7]; 0.125 µM in data set [8].

As for `COc1ccc2nccc(C(N)C[C@@H]3CC[C@@H](NCc4ccc5c(n4)NC(=O)CO5)CO3)c2n1` (mixture of isomers), the MIC in the data set with Acinetobacter baumannii [1] is 8 mg/L; with Pseudomonas aeruginosa [2] it was 8 mg/L; against Escherichia coli it was 1 mg/L; in the data set with Staphylococcus aureus, 2 mg/L. Besides, the IC50 is 0.5 µM in data set [3]; 0.125 µM in [4]; 0.125 µM in data set [5]; 8 µM in data set [6]; 0.125 µM in data set [7]; 2 µM in data set [8].

In the case of `COc1ccc2ncc(=O)n(C[C@H](N)[C@@H]3CC[C@@H](NCc4ccc5c(n4)NC(=O)CO5)CO3)c2n1`, the minimal inhibitory concentration (MIC) is 2 mg/L (≈ 4.15 µM) with Acinetobacter baumannii [1], 2 mg/L (≈ 4.15 µM) in the data set with Pseudomonas aeruginosa [2], 0.5 mg/L (≈ 1.04 µM) in the data set with Escherichia coli and 0.125 mg/L (≈ 0.26 µM) against Staphylococcus aureus. In addition, the half-maximal inhibitory concentration (IC50) in [3] is 0.125 µM; in [4], 0.125 µM; in [5], 0.125 µM; in [6], 0.5 µM; in data set [7], 0.03 µM; in data set [8] it was 0.125 µM.
